The structures appear in SMILES notation.

The nature of series [1]: Test Example 3: pharmacokinetic performance of each drug injection in rats (intramuscular). The series is classed as in vivo. As for the experimental part:
Test Example 3: Pharmacokinetic Performance of Each Drug Injection in Rats
Male SD rats (provided by Shandong Luye Pharma Group Ltd.), weighing 190-280 g, 12 rats, 3 rats in each group.
Vehicle containing 1% of HPMC was prepared, and rotigotine arachidate, rotigotine behenate and rotigotine lignocerate were added to the vehicle respectively to provide 10 mg/ml of suspensions (calculated as rotigotine).
The experimental animals were randomly divided into rotigotine arachidate group (A), rotigotine behenate group (B) and rotigotine lignocerate group (C), with 3 rats in each group, The rats in Groups A, B and C were intramuscularly injected with the corresponding drug (2 ml/kg).
Blood samples were taken from the eyelids of the rats in Groups A, B, and C before the administration (0 h) and at 0.25 h, 1 h, 6 h, 1 d, 2 d, 3 d, 5 d, 7 d, 9 d, 11 d, 14 d, 16 d, 18 d, 21 d, 25 d, 28 d, 30 d, 35 d, 39 d, 42 d after administration. Each blood sample was placed into heparinized EP tube, and was immediately centrifuged (3000 rpm) for 10 min. The plasma was separated and stored at −35° C. for testing.

A short description of series [2]: Test Example 1: pharmacokinetic performance of rotigotine caprylate injection in rats (intramuscular). The series is classed as in vivo. As for the experimental part:
Test Example 1: Pharmacokinetic Performance of Rotigotine Caprylate Injection in Rats
Rotigotine caprylate: prepared according to Comparative Example 1
Male SD rats (provided by Shandong Luye Pharma Group Ltd.), weighing 190-280 g, 3 rats.
Vehicle containing 1% of HPMC was prepared, and rotigotine caprylate was added to the vehicle to provide a 10 mg/ml of suspension (calculated as rotigotine). Three rats were intramuscularly injected with 2 mL/kg of the drug. Blood samples were taken from the eyelids of the rats before the administration (0 h) and at 0.25 h, 1 h, 6 h, 1 d, 2 d, 3 d, 5 d, 7 d, 9 d, 11 d, 14 d, 16 d, 18 d, 21 d, 24 d, 28 d after administration. Each blood sample was placed into heparinized EP tube, and was immediately centrifuged (3000 rpm) for 10 min. The plasma was separated and stored at −35° C. for testing.

Series [3] can be described thus: Test Example 2: pharmacokinetic performance of each drug injection in rats (intramuscular, groups A-C). The series is classed as in vivo. The protocol: Test Example 2: Pharmacokinetic Performance of Each Drug Injection in Rats
(§1) Experimental animals: Male SD rats (provided by Shandong Luye Pharma Group Ltd.), weighing 190-280 g, 12 rats in total, 3 rats in each group.
(§2) Vehicle containing 1% of HPMC was prepared, and rotigotine oleate, rotigotine palmitate and rotigotine stearate were added to the vehicle respectively to provide 10 mg/ml of suspensions (calculated as rotigotine). Rotigotine hydrochloride was formulated as a 0.36 mg/ml injection (calculated as rotigotine) in normal saline.
(§3) The experimental animals were randomly divided into rotigotine oleate group (A), rotigotine palmitate group (B), rotigotine stearate group (C) and rotigotine hydrochloride group (D), with 3 rats in each group. The rats in Groups A, B, and C were intramuscularly injected with the corresponding drug (2 ml/kg), and the rats in group D were injected intravenously with the corresponding drug (2 ml/kg).
Blood samples were taken from the eyelids of the rats in Groups A, B, and C before the administration (0 h) and at 0.25 h, 1 h, 6 h, 1 d, 2 d, 3 d, 5 d, 7 d, 9 d, 11 d, 14 d, 16 d, 18 d, 21 d, 24 d, 28 d after administration. Each sample was placed into heparinized EP tube, and was immediately centrifuged (3000 rpm) for 10 min. The plasma was separated and stored at −35° C. for testing.

For series [4] the following is noted: first-pass effect of the liver; cited from earlier work.
Series [5] can be described thus: Test Example 2: rotigotine hydrochloride intravenous injection in rats (group D). The series is classed as in vivo. Conditions: male, SD, rat, plasma, rotigotine hydrochloride intravenous 2 ml/kg of 0.36 mg/ml injection, read-out: Blood concentration in rats. As for the experimental part:
Rotigotine hydrochloride: purity of 99.83%
as §1, §2, §3
Blood samples were taken from the eyelids of the rats in Group D before the administration (0 h) and at 3 min, 10 min, 0.25 h, 0.5 h, 1 h, 1.5 h, 2 h, 4 h, 6 h, 8 h, and 12 h after administration. Each blood sample was placed into heparinized EP tube, and was immediately centrifuged (3000 rpm) for 10 min. The plasma was separated and stored at −35° C. for testing.

For `CCCCCCCCCCCCCCCCCCCC(=O)Oc1cccc2c1CCC(N(CCC)CCc1cccs1)C2` (stereo not shown) [Rotigotine arachidate], in series [1], the “Maintenance of the effective blood concentration” value (“Maintenance” below) was “maintained only for a short period of time”.

On to `CCCCCCCCCCCCCCCCCCCCCC(=O)Oc1cccc2c1CC[C@H](N(CCC)CCc1cccs1)C2` [Rotigotine behenate], for which, in series [1], the “Maintenance” value is listed as “more than two weeks”.

Consider `CCCCCCCC(=O)Oc1cccc2c1CC[C@H](N(CCC)CCc1cccs1)C2` [Rotigotine caprylate], for which the “Maintenance” value in series [2] was “maintained only for a short period of time”.

In the case of `CCCCCCCCCCCCCCCCCCCCCCCC(=O)Oc1cccc2c1CCC(N(CCC)CCc1cccs1)C2` (stereo not shown) [Rotigotine lignocerate], in series [1], the “Maintenance” value was “cannot be maintained for more than two weeks”.

Consider `CCCCCCCC/C=C\CCCCCCCC(=O)Oc1cccc2c1CCC(N(CCC)CCc1cccs1)C2` (stereo not shown) [Rotigotine oleate], for which the “Maintenance” value in series [3] is recorded as “maintained only for a short period of time”.

Regarding `CCCCCCCCCCCCCCCC(=O)Oc1cccc2c1CCC(N(CCC)CCc1cccs1)C2` (stereo not shown) [Rotigotine palmitate], the “Maintenance” value in series [3] is on record as “no more than two weeks”.

Consider `CCCCCCCCCCCCCCCCCC(=O)Oc1cccc2c1CCC(N(CCC)CCc1cccs1)C2` (stereo not shown) [Rotigotine stearate], for which, in series [3], the “Maintenance” value was “no more than two weeks”.

As to `CCCN(CCc1cccs1)[C@H]1CCc2c(O)cccc2C1` [Rotigotine], the Oral bioavailability in series [4] is recorded as 1%-5%. Moreover, in series [5] (0.72 mg/kg (calculated as rotigotine), 1 h), the concentration at 1 h was 12.1 ng/mL. For the same molecule, the concentration at 1.5 h in series [5] (0.72 mg/kg (calculated as rotigotine), 1.5 h) is 7.25 ng/mL. For the same molecule, the concentration at 2 h in series [5] (0.72 mg/kg (calculated as rotigotine), 2 h) is 4.71 ng/mL. Moreover, the concentration at 0 h in series [5] (0.72 mg/kg, 0 h (before administration)) came out at 0 ng/mL. Besides, the concentration at 0.05 h in series [5] (0.72 mg/kg, 0.05 h) is 82.5 ng/mL. The concentration at 0.17 h in series [5] (0.72 mg/kg, 0.17 h) amounted to 43.8 ng/mL. Also, the concentration at 0.25 h in series [5] (0.72 mg/kg, 0.25 h) is 45.4 ng/mL. The concentration at 0.5 h in series [5] (0.72 mg/kg, 0.5 h) worked out at 29 ng/mL. Further, in series [5] (0.72 mg/kg, 4 h), the concentration at 4 h was 0.99 ng/mL. Moreover, the concentration at 8 h in series [5] (0.72 mg/kg, 8 h) was found to be 0.16 ng/mL. In addition, in series [5] (0.72 mg/kg, 12 h), the concentration at 12 h came to 0.04 ng/mL.

The values above are taken from US11111227B2, “Rotigotine behenate, and manufacturing method and application thereof” (Shandong Luye Pharmaceutical Co., Ltd., priority 2016, dated 2021).
